Tested on: human ventricular muscle organ strips
Test: Force generation of muscle strips from HVP-derived human muscle organ in response to electric stimulation
Conditions: muscle strips of 5-month graft, p<0.05 compared to control
Description: One of the critical limitations for the utility of hPSCs for studies of human cardiac biology and disease is their lack of maturity and persistence of expression of fetal isoforms. […] Animals were sacrificed and the engrafted kidneys were removed for further analysis. The 5-month human graft was a hemisphere structure with the radius of 0.4 cm (diameter of 0.8 cm). […] In addition, muscle trips taken from our mature human muscle organ generated forces (0.36±0.04 mN) in response to electric stimulation and increased their force generation after treatment with a β-adrenergic agonist isoprenaline (0.51±0.02 mN, p<0.05 compared to control). Taken together, these studies indicate that the HVPs are capable of generating a fully functional, mature human ventricular muscle organ in vivo via a cell autonomous pathway, i.e., without the addition of other cells, genes, matrix proteins, or biomaterials.

## CC(C)NCC(O)c1ccc(O)c(O)c1 (stereo not shown) [isoprenaline]
  force generation after treatment with β-adrenergic agonist: 0.51±0.02 mN

— patent US10612094B2, “Genetic markers for engraftment of human cardiac ventricular progenitor cells” (Procella Therapeutics AB, priority 2016, dated 2020)
